≈ marks a conversion by molar mass, not a printed value. Where two headings read alike, the source gives them in different places.
Tests used:
[1] = system: Wolbachia in C6/36 (wAlbB) cells; experiment: Secondary concentration response HTS (IC50) anti-Wolbachia screen in C6/36 (wAlbB) insect cells; type: cell-based, Wolbachia pipientis wAlbB (in Aedes albopictus C6/36 cells); conditions: 7-day incubation, 10-point concentration range
Procedure: Initially C6/36 (wAlbB) cells (insect cells stably infected with the Wolbachia target) from a single cryopreserved batch were recovered over 7 days prior to plating into 384-well assay ready plates (containing the test compounds), using a semi-automated process allowing for daily batches of ~150 plates, set up 4 days per week for 8 weeks. After a 7-day incubation period with the test compounds the plates were moved into the second fully automated stage (using the Agilent Technologies BioCel system) involving formaldehyde fixation, DNA staining of the insect cell nuclei (Hoechst) for toxicity analysis and antibody staining specific to the intracellular Wolbachia (wBmPAL primary antibody and far-red secondary antibody). In the final stage the fixed and stained plates from stage 2 were processed through automated data acquisition (High Res Biosolutions system, incorporating EnVision™ and acumen® plate readers). This industry standardised assay was then used to screen AstraZeneca’s full library of 1.3 million compounds within 10 weeks. In total this HTS included 30 × 3 week assays covering 3835 × 384-well plates. This primary HTS generated 20,255 hits defined as >80% reduction in Wolbachia with <60% toxicity to the host insect cell (eliminating false positives). This represents an overall hit rate of 1.56%. These compounds are depicted in chemical space in Fig. 2 (black points)[21].
The mosquito (Aedes albopictus) derived cell line C6/36 (ATCC® CRL 1660), stably infected with Wolbachia pipientis wAlbB (C6/36(wAlbB)), was maintained in Leibovitz L15 medium containing 2 mM L-glutamine, 1% nonessential amino acids, 2% tryptose phosphate broth and 20% heat-inactivated foetal bovine serum (FBS) at 26 °C[18]. This screen exclusively used cells from the large-scale cryopreserved batch produced as part of this campaign by culturing the cells at scale before cryopreservation (90% FBS and 10% DMSO). This produced a cell bank of 190 × 1 ml cryovials containing 3 × 10^7 cells per vial.
(§1) On day 0, a single cryovial was recovered and the cells washed before being transferred to a T225 cm^2 flask. After a 7-day recovery Wolbachia infection level (quality control (QC)) was checked by SYTO®11 DNA staining of both the host cell nuclei and intracellular Wolbachia. The end-point read out from the Operetta® high content imaging system (Perkin Elmer) was the percentage of cells infected with Wolbachia. This was obtained from cytoplasm texture analysis by the associated Harmony® software. Cells with a >50% of the population infected with Wolbachia were classed as having a good Wolbachia level and therefore used for screening through addition of 2000 cells per well into assay ready 384-well plates containing the test compounds. […] Each plate included on-board controls; vehicle/DMSO (total/maximum Wolbachia signal) or doxycycline 5 µM (null/minimum Wolbachia signal), resulting in single shot screening of 352 compounds per plate for the primary screen. […] QC plates were also created including full columns of the following controls; DMSO (total/max), 5 μM doxycycline (null/min), as well as 50 nM doxycycline (reference/medium Wolbachia signal). Daily batches contained ~150 compound plates in addition to the QC plates. Each compound plate was foil sealed before incubation for 7 days at 26 °C, 95% humidity and atmospheric air.
After 7 days of drug incubation, the plates were loaded into the fully automated BioCel system which performed the following additions; fixation and DNA staining (1.8% formaldehyde + 0.6 µg/ml Hoechst 33342, 20 min), permeabilisation (80 μl of PBS + 0.25% Triton-X 100, 30 min), blocking (PBS + 6% BSA, 40 min), overnight incubation in the Wolbachia-specific anti-wBmPAL primary antibody[34] […]

THP-1 cells = experiment: Mammalian cell viability counter-screen (CellTiter-Blue); type: cell-based, human; conditions: 48 h, read-out: HTS IC50 mammalian toxicity
Procedure: The human monocytic THP-1 cell line (ATCC® TIB-202) used for mammalian cytotoxicity evaluation was routinely cultured in roller bottles. Growth media consisted of RPMI 1640 supplemented with 10% FBS and 2 mM L-glutamine. Cells were maintained at 37 °C with 95% humidity in 5% CO2 in a shaking incubator.
All compounds selected for secondary IC50 screen were tested in parallel for mammalian cell viability using the CellTiter-Blue® Cell Viability Assay. THP1 cells were removed from culture and plated at 1 × 10^4 cells/well (40 µl) into 384-well assay ready plates and incubated at 37 °C, 5% CO2 for 48 h at 95% humidity. After the addition of CellTiter-Blue Viability reagent (8 µl of a 1:6 dilution) the assay plates were incubated for a further 2 h before fluorescence detected using a PerkinElmer EnVision™ plate reader.

[2] = system: Wolbachia in C6/36 (wAlbB) cells; experiment: Confirmatory re-assessment in the insect cell screen (cell assay EC50); type: cell-based, Wolbachia pipientis wAlbB (in Aedes albopictus C6/36 cells); conditions: insect cell screen, re-sourced or re-synthesised samples
Text: To further validate the hit molecules from these 9 clusters, samples were sourced either from the AstraZeneca compound inventory or through re-synthesis. All 18 samples were characterised by nuclear magnetic resonance (NMR) and mass spectroscopy to confirm their chemical structures and by HPLC/LCMS to establish their purity (Supplementary Table 5 and Supplementary Data 1). These samples were also subject to confirmatory re-assessment in both the insect cell screen and Mf assays for anti-Wolbachia potency alongside confirmation of DMPK properties (LogD7.4, aqueous solubility in pH 7.4 PBS, human microsomal turnover, rat hepatocyte turnover and human plasma protein binding) (Fig. 4, Supplementary Figure 1 and Supplementary Table 4).
as §1

[3] = system: Wolbachia within Brugia malayi Mf; experiment: B. malayi microfilarial (Mf) in vitro anti-Wolbachia assay (wsp:gst qPCR); type: cell-based; conditions: for EC50: B. malayi Mf, 6 days, read-out: Mf EC50
Procedure: The Mf were obtained by peritoneal lavage, using a catheter, of gerbils (Meriones unguiculatus) harbouring a patent infection of B. malayi. Mf were purified using a PD-10 desalting column (Fisher), centrifuged (311 RCF for 5 min at room temperature) before the addition of 8000 Mf/well of a 96-well plate (100 µl per well) in complete media consisting of RPMI supplemented with 10% FBS, 1% penicillin streptomycin and 1% amphotericin B. […] Each plate contained doxycycline (5 µM) and DMSO controls. After incubation at 37 °C for 6 days in 5% CO2, visual assessment of Mf motility was performed and scored from 0 to 4 per well (where 0 = no movement and 4 = highly motile). DNA extraction per sample was performed using the QIAmp DNA Mini Kit before quantitative PCR was performed to obtain the ratio of Wolbachia Surface Protein gene copy number (wsp) to Glutathione S-Transferase gene copy number (gst)[36]. The DNA was amplified using the primers as indicated in Supplementary Table 6.
The wsp:gst ratio data allowed for normalisation of the Wolbachia level to the Mf biomass for each well. The change in wsp:gst for each compound compared to the DMSO control was calculated before normalisation to the onboard doxycycline control to allow for inter-assay comparison.

Rat hepatocyte clearance = type: in vitro ADME
Text: (§2) The DMPK data used for triaging compounds, including LogD7.4, aqueous solubility, plasma protein binding, microsome and hepatocyte clearance measurements, were generated using the standard AstraZeneca UK high-throughput platform[37],[38].

[4] = Human microsome clearance; type: in vitro ADME; conditions: for microsomal CLint: human microsomes
Text: as §2

LogD7.4 = type: physicochemical; conditions: pH 7.4
Text: as §2

[5] = Aqueous solubility in pH 7.4 PBS; type: physicochemical; conditions: for solubility: PBS pH 7.4, aqueous buffer, pH 7.4 PBS, read-out: Aqueous solubility in pH7.4 PBS
Text: as §2

[6] = Human plasma protein binding; type: in vitro ADME; conditions: for fraction unbound: plasma
Text: as §2

| SMILES | IC50 ([1]; Wolbachia, 168 h) | IC50 (THP-1 cells; Homo sapiens) | EC50 ([2]; Wolbachia, C6/36) | EC50 ([3]; Brugia malayi, 144 h) | Rat hepatocytes CLint (Rat hepatocyte clearance) | microsomal CLint ([4]; human) | logD (LogD7.4) | solubility [5] | fraction unbound [6] | Mf in vitro potency (in words) [3] | Human microsomal stability (in words) [4] | Solubility (in words) [5] | IC50 [1] | IC50 (THP-1 cells) | EC50 [2] | EC50 [3] | Human microsome CLint ([4]; human, microsomes) | LogD 7.4 (LogD7.4) | Human plasma protein binding [6] |
| --- | --- | --- | --- | --- | --- | --- | --- | --- | --- | --- | --- | --- | --- | --- | --- | --- | --- | --- | --- |
| CNC(=O)c1csc(C2CCCN2Cc2ccc(C)c(F)c2)n1 (centres unmarked) [4B, 2-(1-(3-fluoro-4-methylbenzyl)pyrrolidin-2-yl)-N-methylthiazole-4-carboxamide] | 228 nM | > 30600 nM | 66 nM | 1760 nM | > 300 µl/min/1x106 cells | 83.4 µL/min/mg | 3.7 | 397 µM (≈ 132 µg/mL) | 0.05 |  |  |  |  |  |  |  |  |  |  |
| O=C(NCCCn1ccnc1)NC1C(=O)Nc2ccccc2SC1c1cc(F)ccc1F (centres unmarked) [9B, 1-(3-(1H-imidazol-1-yl)propyl)-3-(2-(2,5-difluorophenyl)-4-oxo-2,3,4,5-tetrahydrobenzo[b][1,4]thiazepin-3-yl)urea] | 475 nM | > 30600 nM | 483 nM | 2700 nM | 171.6 µl/min/1x106 cells | > 300 µL/min/mg | 3.8 | 43 µM (≈ 19.7 µg/mL) | 0.016 |  |  |  |  |  |  |  |  |  |  |
| O=C(Cc1cc(F)cc(F)c1)NCC(=O)NC1C(=O)Nc2ccccc2SC1c1ccccc1 (centres unmarked) [9A, 2-(3,5-difluorophenyl)-N-(2-oxo-2-((4-oxo-2-phenyl-2,3,4,5-tetrahydrobenzo[b][1,4]thiazepin-3-yl)amino)ethyl)acetamide] | 181 nM | > 30600 nM | 180 nM | > 5000 nM | 28.0 µl/min/1x106 cells | 228 µL/min/mg | 3 | 105 µM (≈ 50.6 µg/mL) | 0.12 |  |  |  |  |  |  |  |  |  |  |
| O=C1NCCCc2nc(N3CCN(c4ccccc4F)CC3)sc21 [6A, 2-(4-(2-fluorophenyl)piperazin-1-yl)-5,6,7,8-tetrahydro-4H-thiazolo[5,4-c]azepin-4-one] | 684 nM | > 30600 nM | 2560 nM | 447 nM | 55.1 µl/min/1x106 cells | 11.3 µL/min/mg | 2.9 | 26 µM (≈ 9.01 µg/mL) | 0.088 | lower potency than representatives 4A or 5A | very good | acceptable |  |  |  |  |  |  |  |
| CN(Cc1cccc(Cl)c1)S(=O)(=O)c1ccc2c(c1)C(=O)NCC2 [8A, N-(3-chlorobenzyl)-N-methyl-1-oxo-1,2,3,4-tetrahydroisoquinoline-7-sulfonamide] | 486 nM | > 30600 nM | 515 nM | 2700 nM | > 300 µl/min/1x106 cells | > 300 µL/min/mg | 2.7 | 16 µM (≈ 5.84 µg/mL) | 0.05 |  |  |  |  |  |  |  |  |  |  |
| Cc1nc(C(=O)NC(C)c2cccc3ccccc23)c(NC(=O)Cc2ccccc2)[nH]1 (centres unmarked) [5B, 2-methyl-N-(1-(naphthalen-1-yl)ethyl)-5-(2-phenylacetamido)-1H-imidazole-4-carboxamide] | 158 nM | > 30600 nM | 68 nM | 294 nM | 71.1 µl/min/1x106 cells | 101 µL/min/mg | 4.6 | 22 µM (≈ 9.07 µg/mL) | 0.011 |  |  |  |  |  |  |  |  |  |  |
| Cc1csc(CN(C)c2nc3c(s2)C(=O)NCCC3)n1 [6B, 2-(methyl((4-methylthiazol-2-yl)methyl)amino)-5,6,7,8-tetrahydro-4H-thiazolo[5,4-c]azepin-4-one] | 594 nM | > 30600 nM | 897 nM | > 5000 nM | 22.9 µl/min/1x106 cells | 3.5 µL/min/mg | 1.6 | 756 µM (≈ 233 µg/mL) | 0.4 |  |  |  |  |  |  |  |  |  |  |
| COCc1ccc(C(=O)Nc2ccc(CNC(=O)c3ccnn3C)cc2C)nc1 [7B, 5-(methoxymethyl)-N-(2-methyl-4-((1-methyl-1H-pyrazole-5-carboxamido)methyl)phenyl) picolinamide] |  |  |  |  | 25.0 µl/min/1x106 cells |  |  |  |  |  |  |  | 2480 nM | > 30600 nM | 3070 nM | 2220 nM | 40.7 µL/min/mg | 2.3 | 99.5% |

Reference: article PMC6315057, “Industrial scale high-throughput screening delivers multiple fast acting macrofilaricides” (Nature Communications, 2019)
